Columns and labels:
Format in all cases: cell-based
[1] = target: T1, group I metabotropic glutamate receptor subtype 5 (mGluR5) (Homo sapiens, UniProt P41594); assay: Electrophysiological measurement of response current in Xenopus oocytes injected with mGluR5 cRNA; settings: aspartic acid 300 μM, valine 3 mM; for mGluR5 (receptor activation by amino acid): amino acid alone, others 10 mM, oocytes injected with mGluR5 cRNA; for mGluR5 (receptor activation by amino acid) / effect of amino acid (response current value) with nucleic acid and cation vs amino acid alone: cysteine 1 mM; for effect of amino acid (response current value) with nucleic acid and cation vs amino acid alone: coexistence with both inosinic acid (1 mM) and calcium ion (10 mM), FIG. 4; for effect of amino acid (response current value) with nucleic acid and cation vs amino acid alone / effect of amino acid (response current value) with cation vs amino acid alone / effect of amino acid (response current value) with nucleic acid vs amino acid alone: glutamic acid 3 μM; for effect of amino acid (response current value) with cation vs amino acid alone: coexistence with calcium ion (10 mM), FIG. 3; for effect of amino acid (response current value) with cation vs amino acid alone / effect of amino acid (response current value) with nucleic acid vs amino acid alone: cysteine 3 mM; for effect of amino acid (response current value) with nucleic acid vs amino acid alone: coexistence with inosinic acid (1 mM), FIG. 2
T1 construct: expressed in transfected cells; host or cells: Xenopus oocytes injected with cRNA
Excerpt: A metabotropic glutamate receptor subtype 5 (mGluR5) was used as a group I metabotropic glutamate receptor. A metabotropic glutamate receptor subtype 3 (mGluR3) was used as a representative of group II metabotropic glutamate receptors. A metabotropic glutamate receptor subtype 8 (mGluR8) was used as a representative of group III metabotropic glutamate receptors. The genes of the three metabotropic glutamate receptors, G-protein-gated inward rectifier K channel 1 (GIRK1), and G-protein-gated inward rectifier K channel 4 (GIRK4) were prepared as follows.
PCR was performed using a cDNA derived from the human brain (manufactured by Clontech) as a material and using Pfu ultra DNA Polymerase (manufactured by Stratagene) under the following conditions. After a 3-minute reaction at 94° C., a cycle of 94° C./30 seconds, 55° C./30 seconds, and 72° C./2 minutes was repeated 35 times, followed by a 7-minute reaction at 72° C. Amplified PCR products were subjected to agarose gel electrophoresis, stained with a DNA staining reagent and detected by UV irradiation. The lengths of the PCR products were confirmed by comparing the lengths with a DNA marker having a known size, which was electrophoresed simultaneously with the PCR products. A plasmid vector pBR322 was cleaved with a restriction enzyme EcoRV (manufactured by TAKARA BIO INC.). The respective gene fragments amplified by PCR were ligated to the cleaved site using Ligation Kit (manufactured by Promega). Escherichia coli DH5a strain was transformed with the reaction solution, and transformants carrying plasmids where the PCR products were cloned were selected. The PCR amplified products were identified by DNA sequence analysis. The recombinant plasmids were used as a template to prepare cRNA of each of the receptor genes using a cRNA preparation kit (Ambion, Inc.).
Special grade reagents of twenty-three L-amino acids including alanine, arginine, asparagine, aspartic acid, cysteine, glutamine, glutamic acid, glycine, histidine, isoleucine, leucine, lysine, methionine, phenylalanine, proline, serine, threonine, tryptophan, tyrosine, valine, ornithine, taurine, and hydroxyproline were used. Special grade reagents of inosine and calcium chloride were used. Glutamine and cysteine were prepared every time before use, and the other reagents were prepared and stored at −20° C. A solution for dissolving amino acids, nucleic acids, and cations, a solution for preparing Xenopus oocytes, and a solution for culturing Xenopus oocytes have the following composition. NaCl 96 mM/KCl 2 mM/MgCl2 1 mM/CaCl2 1.8 mM/Hepes 5 mM/pH 7.2.
Ca ion concentration-dependent Cl ion current measurement method using a Xenopus oocyte expression system was used as a method of measuring the signaling via a metabotropic glutamate receptor. The abdomen of a Xenopus were incised, and the egg mass was removed and treated with a 1% collagenase solution at 20° C. for 2 hours, to thereby obtain individual oocytes. To one oocyte was introduced 50 nl of 1 μg/μl receptor cRNA or 50 nl of distilled water using a microcapillary, followed by culture at 18° C. for 2 or 3 days. This culture was performed using a solution obtained by adding 2 mM pyruvic acid, 10 U/ml penicillin, and 10 μg/ml streptomycin to the solution shown in Example 2. After completion of culture, a ligand solution was added to oocytes injected with the cRNA and oocytes injected with distilled water, respectively. Electrophysiological measurement was performed using an amplifier Geneclamp 500 (manufactured by Axon Instruments, Inc.) and recording software AxoScope 9.0 (manufactured by Axon Instruments, Inc.). The oocytes were subjected to membrane potential fixation at −70 mV by a two-electrode membrane potential fixation method, and intracellular currents via Ca ion concentration-dependent Cl ion were measured. The maximal value of the intracellular currents was defined as a response current value.

[2] = target: T2, group II metabotropic glutamate receptor subtype 3 (mGluR3) (Homo sapiens, UniProt Q14832); assay: Electrophysiological measurement of response current in Xenopus oocytes injected with mGluR3, GIRK1 and GIRK4 cRNAs; settings: for mgluR3 (receptor activation by amino acid): amino acid alone, 1 mM, oocytes injected with mGluR3, GIRK1, GIRK4 cRNAs; for effect of amino acid (response current value) with cation vs amino acid alone: coexistence with calcium ion (10 mM), FIG. 7; for effect of amino acid (response current value) with cation vs amino acid alone / effect of amino acid (response current value) with nucleic acid and cation vs amino acid alone: cysteine 1 mM; for effect of amino acid (response current value) with nucleic acid and cation vs amino acid alone: coexistence with inosinic acid (1 mM) and calcium ion (10 mM), FIG. 8
T2 construct: expressed in transfected cells; host or cells: Xenopus oocytes injected with cRNAs of mGluR3, GIRK1 and GIRK4

[3] = target: T3, group III metabotropic glutamate receptor subtype 8 (mGluR8) (Homo sapiens, UniProt O00222); assay: Electrophysiological measurement of response current in Xenopus oocytes injected with mGluR8, GIRK1 and GIRK4 cRNAs; settings: cysteine 1 mM; for mgluR8 (receptor activation by amino acid): amino acid alone, aspartic acid 300 μM, valine 3 mM, others 10 mM, oocytes injected with mGluR8, GIRK1, GIRK4 cRNAs; for effect of amino acid (response current value) with nucleic acid and cation vs amino acid alone: coexistence with both inosinic acid (1 mM) and calcium ion (10 mM), FIG. 12; for effect of amino acid (response current value) with nucleic acid and cation vs amino acid alone / effect of amino acid (response current value) with cation vs amino acid alone / effect of amino acid (response current value) with nucleic acid vs amino acid alone: glutamic acid 3 μM; for effect of amino acid (response current value) with cation vs amino acid alone: coexistence with calcium ion (10 mM), FIG. 11; for effect of amino acid (response current value) with nucleic acid vs amino acid alone: coexistence with inosinic acid (1 mM), FIG. 10
T3 construct: expressed in transfected cells; host or cells: Xenopus oocytes injected with cRNAs of mGluR8, GIRK1 and GIRK4

[4] = glutamic acid 3 μM, aspartic acid 300 μM, leucine 1 mM

T3 sequence (O00222 34-908): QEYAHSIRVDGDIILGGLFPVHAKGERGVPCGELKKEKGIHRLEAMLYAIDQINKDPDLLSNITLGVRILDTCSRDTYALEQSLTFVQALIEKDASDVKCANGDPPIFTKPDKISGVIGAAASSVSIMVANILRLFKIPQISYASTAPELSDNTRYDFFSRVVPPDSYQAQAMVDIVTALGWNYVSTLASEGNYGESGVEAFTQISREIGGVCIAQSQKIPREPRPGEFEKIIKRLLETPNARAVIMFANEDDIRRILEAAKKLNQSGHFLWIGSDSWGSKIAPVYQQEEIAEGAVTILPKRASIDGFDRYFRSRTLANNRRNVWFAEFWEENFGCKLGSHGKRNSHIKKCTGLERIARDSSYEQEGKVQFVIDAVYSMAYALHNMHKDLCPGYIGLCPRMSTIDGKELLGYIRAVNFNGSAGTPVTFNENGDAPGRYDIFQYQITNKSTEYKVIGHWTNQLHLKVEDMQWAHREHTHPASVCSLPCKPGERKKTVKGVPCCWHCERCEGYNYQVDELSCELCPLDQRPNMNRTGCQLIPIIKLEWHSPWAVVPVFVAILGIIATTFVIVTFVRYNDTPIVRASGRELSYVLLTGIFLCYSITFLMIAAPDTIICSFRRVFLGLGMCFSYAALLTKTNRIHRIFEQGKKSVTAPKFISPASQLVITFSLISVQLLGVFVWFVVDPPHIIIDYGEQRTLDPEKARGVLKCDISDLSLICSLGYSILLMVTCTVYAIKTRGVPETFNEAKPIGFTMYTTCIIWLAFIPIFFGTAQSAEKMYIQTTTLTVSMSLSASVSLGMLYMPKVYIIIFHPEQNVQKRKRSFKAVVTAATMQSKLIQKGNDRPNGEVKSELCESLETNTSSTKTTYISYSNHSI
T1 sequence (P41594 21-1180 isoform P41594-2 limits assumed): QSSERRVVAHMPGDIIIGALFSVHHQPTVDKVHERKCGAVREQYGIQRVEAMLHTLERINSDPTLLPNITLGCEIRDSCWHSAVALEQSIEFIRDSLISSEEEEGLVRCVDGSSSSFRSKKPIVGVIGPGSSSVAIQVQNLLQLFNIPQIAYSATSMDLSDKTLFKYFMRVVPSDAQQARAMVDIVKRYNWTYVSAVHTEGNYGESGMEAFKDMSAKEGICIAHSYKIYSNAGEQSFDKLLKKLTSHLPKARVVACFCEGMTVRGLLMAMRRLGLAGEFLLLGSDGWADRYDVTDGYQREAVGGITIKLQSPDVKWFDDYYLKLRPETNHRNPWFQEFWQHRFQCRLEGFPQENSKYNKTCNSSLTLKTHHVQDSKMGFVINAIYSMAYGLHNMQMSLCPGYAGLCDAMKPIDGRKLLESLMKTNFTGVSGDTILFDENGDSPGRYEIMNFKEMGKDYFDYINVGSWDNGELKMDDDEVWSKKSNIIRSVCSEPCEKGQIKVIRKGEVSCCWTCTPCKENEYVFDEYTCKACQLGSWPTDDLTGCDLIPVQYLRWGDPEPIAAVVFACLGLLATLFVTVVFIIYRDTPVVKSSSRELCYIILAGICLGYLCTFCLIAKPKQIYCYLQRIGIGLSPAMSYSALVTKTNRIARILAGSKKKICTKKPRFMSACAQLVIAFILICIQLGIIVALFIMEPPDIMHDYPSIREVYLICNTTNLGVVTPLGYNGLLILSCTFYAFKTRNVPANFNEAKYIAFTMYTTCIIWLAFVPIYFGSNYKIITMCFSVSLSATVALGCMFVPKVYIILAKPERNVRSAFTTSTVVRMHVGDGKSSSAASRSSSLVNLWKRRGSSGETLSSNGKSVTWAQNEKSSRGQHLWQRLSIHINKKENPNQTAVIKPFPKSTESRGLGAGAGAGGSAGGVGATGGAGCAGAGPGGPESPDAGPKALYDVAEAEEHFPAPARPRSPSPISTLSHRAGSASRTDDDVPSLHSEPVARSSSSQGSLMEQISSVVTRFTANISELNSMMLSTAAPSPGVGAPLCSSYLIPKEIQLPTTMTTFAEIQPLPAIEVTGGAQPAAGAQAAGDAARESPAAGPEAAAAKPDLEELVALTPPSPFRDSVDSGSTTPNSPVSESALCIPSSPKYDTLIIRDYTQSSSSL
T2 sequence (Q14832 23-879): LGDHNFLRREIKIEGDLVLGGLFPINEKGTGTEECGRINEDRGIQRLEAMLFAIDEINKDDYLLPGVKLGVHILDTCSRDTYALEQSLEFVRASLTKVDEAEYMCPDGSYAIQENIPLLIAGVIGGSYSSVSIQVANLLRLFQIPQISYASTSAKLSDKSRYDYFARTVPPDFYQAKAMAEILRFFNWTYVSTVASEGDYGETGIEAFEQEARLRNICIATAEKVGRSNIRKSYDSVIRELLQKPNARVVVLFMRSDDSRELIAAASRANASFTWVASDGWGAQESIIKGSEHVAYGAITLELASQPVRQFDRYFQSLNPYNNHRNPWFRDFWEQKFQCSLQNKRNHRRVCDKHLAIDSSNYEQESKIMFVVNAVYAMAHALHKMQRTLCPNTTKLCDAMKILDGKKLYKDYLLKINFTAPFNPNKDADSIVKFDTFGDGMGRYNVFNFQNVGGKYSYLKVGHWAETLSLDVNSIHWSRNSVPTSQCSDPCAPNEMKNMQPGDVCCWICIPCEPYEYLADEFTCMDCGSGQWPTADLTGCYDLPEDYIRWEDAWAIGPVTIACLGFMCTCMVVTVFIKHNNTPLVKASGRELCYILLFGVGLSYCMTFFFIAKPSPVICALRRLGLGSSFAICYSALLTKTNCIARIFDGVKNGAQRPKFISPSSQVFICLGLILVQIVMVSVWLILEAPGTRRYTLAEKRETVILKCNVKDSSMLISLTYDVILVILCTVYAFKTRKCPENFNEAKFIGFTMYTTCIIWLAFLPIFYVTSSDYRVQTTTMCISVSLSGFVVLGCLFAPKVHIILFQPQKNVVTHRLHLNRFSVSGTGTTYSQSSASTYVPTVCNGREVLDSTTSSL

Row | mGluR5 (receptor activation by amino acid) ([1]; listed as cysteine) | mgluR3 (receptor activation by amino acid) ([2]; listed as cysteine) | mgluR8 (receptor activation by amino acid) ([3]; listed as cysteine) | Structure (SMILES) | mGluR5 (receptor activation by amino acid) [1] | mGluR5 (receptor activation by amino acid) ([1]; listed as glutamic acid) | effect of amino acid (response current value) with nucleic acid and cation vs amino acid alone [1] | effect of amino acid (response current value) with cation vs amino acid alone [1] | effect of amino acid (response current value) with nucleic acid vs amino acid alone [1] | mgluR3 (receptor activation by amino acid) [2] | mgluR3 (receptor activation by amino acid) ([2]; listed as glutamic acid) | effect of amino acid (response current value) with cation vs amino acid alone [2, 4] | effect of amino acid (response current value) with nucleic acid and cation vs amino acid alone [2, 4] | effect of amino acid (response current value) with nucleic acid vs amino acid alone ([2]; coexistence with inosinic acid (1 mM), glutamic acid 3 μM, aspartic acid 300 μM, valine 1 mM, leucine 1 mM, FIG. 6) | mgluR8 (receptor activation by amino acid) [3] | mgluR8 (receptor activation by amino acid) ([3]; listed as glutamic acid) | effect of amino acid (response current value) with nucleic acid and cation vs amino acid alone [3] | effect of amino acid (response current value) with cation vs amino acid alone [3] | effect of amino acid (response current value) with nucleic acid vs amino acid alone [3]
1 |  |  |  | N[C@@H](CCC(=O)O)C(=O)O [Glutamic acid, glutamic acid, reference compound] | Activated | effects of enhancing | enhanced | enhanced | enhanced | Activated | effects of enhancing the activation | enhanced | enhanced | enhanced | Activated | effects of activating | enhanced | enhanced | enhanced
2 | effects of enhancing | effects of enhancing the activation | effects of activating | N[C@@H](CS)C(=O)O [Cysteine, cysteine] | Activated |  | enhanced | enhanced | enhanced | Activated |  | enhanced | enhanced |  | Activated |  | enhanced | enhanced | enhanced

Source: patent US20080182811A1, “METABOTROPIC GLUTAMATE RECEPTOR ACTIVATOR” (Ajinomoto Co., Inc., priority 2005, published 2008)
